Test results taken from patent publication US8710243B2, “Estrogen receptor ligands” (Karo Bio AB, priority 2009, dated 2014).
pEC50: −log10 of the molar value.

What follows are compounds tested against T1, human estrogen receptor beta (Homo sapiens, UniProt Q92731) (assay: Transactivation Assay 2 in human embryonic kidney 293 cells stably transfected with pERE2-ALP and human estrogen receptor beta). Conditions: read-out: potency at the estrogen receptor β-subtype, EC50.
T1 construct: expressed in transfected cells; host or cells: HEK293 (CRL-1573)
T1 sequence (Q92731 whole entry): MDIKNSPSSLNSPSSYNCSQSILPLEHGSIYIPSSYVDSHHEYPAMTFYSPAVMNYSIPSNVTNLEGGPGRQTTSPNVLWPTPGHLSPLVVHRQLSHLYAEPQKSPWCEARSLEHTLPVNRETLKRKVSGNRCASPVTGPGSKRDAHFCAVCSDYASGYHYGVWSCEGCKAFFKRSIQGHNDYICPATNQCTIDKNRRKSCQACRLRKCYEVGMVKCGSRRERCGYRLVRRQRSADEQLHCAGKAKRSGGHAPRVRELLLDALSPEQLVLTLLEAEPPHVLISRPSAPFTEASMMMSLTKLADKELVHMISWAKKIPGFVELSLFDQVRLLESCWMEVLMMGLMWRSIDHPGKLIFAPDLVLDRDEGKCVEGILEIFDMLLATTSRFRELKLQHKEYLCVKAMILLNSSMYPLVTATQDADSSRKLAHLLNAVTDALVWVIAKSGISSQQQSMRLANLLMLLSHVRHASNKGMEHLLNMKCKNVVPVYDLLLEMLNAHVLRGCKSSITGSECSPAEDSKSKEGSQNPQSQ
Format: cell-based
Experimental: Transactivation Assay 2: Transactivation Assay in Human Embryonic Kidney 293 Cells Stably Transfected with pERE2-ALP and Human Estrogen Receptor Beta
Generation of stable HEK293 cell lines (CRL-1573; American Type Culture Collection) expressing the reporter vector pERE2-ALP and human estrogen receptor beta (hERβ 530) have been described (Mol Pharmacol 1998, 54, 105-112; Endocrinology 2002, 143, 1558-1561).
The cells were seeded in 384-well plates at 12 500 cells per well in Ham's F12 Coon's modification (without phenol red) with 10% dextran-coated charcoal treated (DCC) fetal bovine serum (FBS), 2 mM L-glutamine and 50 μg/ml gentamicin. After 24 h incubation (37° C., 5% CO2) the seeding medium was discarded and replaced with 20 μl Ham's F12 Coon's modification (without phenol red) with 1.5% DCC-FCS, 2 mM L-glutamine and supplemented with 100 U/ml penicillin and 100 μg/ml streptomycin. The selected compounds were added to the wells in 12 concentrations ranging from […] to 33 μM. The compounds were dissolved in 100% dimethylsulfoxide (DMSO) and the final concentration of DMSO in the assay was 0.1%. After 72 h incubation (37° C., 5% CO2) the medium was assayed for ALP activity by a chemiluminescence assay; a 10 μl aliquot of the conditioned medium was mixed with 100 μl assay buffer (0.1 M diethanolamine, 1 mM MgC12) and 0.5 mM disodium 3-(4-methoxyspiro 1,2-dioxetane-3,2′-(5′-chloro)-tricyclo[3.3.1.13,7]decan-4-yl)phenyl phosphate (CSPD) (Tropix, Applied Biosystems) and incubated for 20 min at 37° C. and 15 min at room temperature before measurement of the chemiluminescent signal (one second per well) in a Wallac Microbeta Trilux 1450-028 (PerkinElmer). The ALP activity expressed in LCPS is directly proportional to the level of ALP expressed by the cells. The half maximal effective concentrations of the test compounds (EC50) were calculated from the curves fitted to the concentration-response data with a four parameter logistic model in XLfit software version 2.0 (IDBS) or later.

Row | SMILES | pEC50
1 | Cc1noc(C)c1-c1c(-c2ccc(O)cc2)c2ccccc2n1C(N)=O [Example 3, 2-(3,5-dimethylisoxazol-4-yl)-3-(4-hydroxyphenyl)-1H-indole-1-carboxamide] | 8.00 to 10.00
2 | Cc1csc(C)c1-c1c(-c2ccc(O)cc2)c2ccccc2n1C(N)=O [Example 11, 2-(2,4-dimethylthiophen-3-yl)-3-(4-hydroxyphenyl)-1H-indole-1-carboxamide] | 8.00 to 10.00
3 | Cc1coc(C)c1-c1c(-c2ccc(O)cc2)c2ccccc2n1C(N)=NO [Example 23, 2-(2,4-dimethylfuran-3-yl)-N′-hydroxy-3-(4-hydroxyphenyl)-1H-indole-1-carboximidamide] | 8.00 to 10.00
4 | Cc1nsc(C)c1-c1c(-c2ccc(O)cc2)c2ccccc2n1C(N)=NO [Example 24, 2-(3,5-dimethylisothiazol-4-yl)-N′-hydroxy-3-(4-hydroxyphenyl)-1H-indole-1-carboximidamide] | 8.00 to 10.00
5 | Cc1noc(C)c1-c1c(-c2ccc(O)cc2)c2ccccc2n1C=NO [Example 5, 2-(3,5-dimethylisoxazol-4-yl)-3-(4-hydroxyphenyl)-1H-indole-1-carbaldehyde oxime] | 8.00 to 10.00
6 | Cc1noc(C)c1-c1c(-c2ccc(O)cc2)c2ccccc2n1S(C)(=O)=O [Example 6, 4-(2-(3,5-dimethylisoxazol-4-yl)-1-(methylsulfonyl)-1H-indol-3-yl)phenol] | 8.00 to 10.00
7 | Cc1csc(C)c1-c1c(-c2ccc(O)cc2)c2ccccc2n1C(N)=NO [Example 10, 2-(2,4-dimethylthiophen-3-yl)-N′-hydroxy-3-(4-hydroxyphenyl)-1H-indole-1-carboximidamide] | 8.00 to 10.00
8 | CCNC(=O)n1c(-c2c(C)noc2C)c(-c2ccc(O)cc2)c2ccccc21 [Example 8, 2-(3,5-dimethylisoxazol-4-yl)-N-ethyl-3-(4-hydroxyphenyl)-1H-indole-1-carboxamide] | 8.00 to 10.00
9 | Cc1noc(C)c1-c1c(-c2ccc(O)cc2)c2cc(Cl)ccc2n1C(N)=NO [Example 22, 5-chloro-2-(3,5-dimethylisoxazol-4-yl)-N′-hydroxy-3-(4-hydroxyphenyl)-1H-indole-1-carboximidamide] | 8.00 to 10.00
10 | Cc1noc(C)c1-c1c(-c2ccc(O)c(F)c2)c2ccccc2n1C(N)=NO [Example 20, 2-(3,5-dimethylisoxazol-4-yl)-3-(3-fluoro-4-hydroxyphenyl)-N′-hydroxy-1H-indole-1-carboximidamide] | 8.00 to 10.00
11 | Cc1noc(C)c1-c1c(-c2cc(F)c(O)cc2F)c2ccccc2n1C(N)=NO [Example 19, 3-(2,5-difluoro-4-hydroxyphenyl)-2-(3,5-dimethylisoxazol-4-yl)-N′-hydroxy-1H-indole-1-carboximidamide] | 8.00 to 10.00
12 | Cc1cccc(C)c1-c1c(-c2ccc(O)cc2)c2ccccc2n1C(N)=NO [Example 12, 2-(2,6-dimethylphenyl)-N′-hydroxy-3-(4-hydroxyphenyl)-1H-indole-1-carboximidamide] | 8.00 to 10.00

Further lines, results first:

Row | pEC50 | SMILES
13 | 8.00 to 10.00 | Cc1noc(C)c1-c1c(-c2ccc(O)cc2)c2ccccc2n1C(N)=NO [Example 2, 2-(3,5-dimethylisoxazol-4-yl)-N′-hydroxy-3-(4-hydroxyphenyl)-1H-indole-1-carboximidamide]
14 | 8.00 to 10.00 | Cc1noc(C)c1-c1c(-c2ccc(O)cc2F)c2ccccc2n1C(N)=NO [Example 18, 2-(3,5-dimethylisoxazol-4-yl)-3-(2-fluoro-4-hydroxyphenyl)-N′-hydroxy-1H-indole-1-carboximidamide]
15 | 8.00 to 10.00 | Cc1noc(C)c1-c1c(-c2cc(F)c(O)c(F)c2)c2ccccc2n1C(N)=NO [Example 16, 3-(3,5-difluoro-4-hydroxyphenyl)-2-(3,5-dimethylisoxazol-4-yl)-N′-hydroxy-1H-indole-1-carboximidamide]
16 | 8.00 to 10.00 | Cc1csc(C)c1-c1c(-c2ccc(O)cc2)c2cc(Cl)ccc2n1C(N)=NO [Example 21, 5-chloro-2-(2,4-dimethylthiophen-3-yl)-N′-hydroxy-3-(4-hydroxyphenyl)-1H-indole-1-carboximidamide]
17 | 8.00 to 10.00 | CC=C(C)c1c(-c2ccc(O)cc2)c2ccccc2n1C(N)=NO (stereo in doubt) [Example 7, 2-((E)-but-2-en-2-yl)-N′-hydroxy-3-(4-hydroxyphenyl)-1H-indole-1-carboximidamide]
